Reference: ChEMBL document CHEMBL1125816, “[123I]-2 beta-carbomethoxy-3 beta-(4-iodophenyl)tropane: high-affinity SPECT radiotracer of monoamine reuptake sites in brain” (J Med Chem, 1991)

Target: Sodium-dependent serotonin transporter (Rattus norvegicus, UniProt P31652)
Assay: Compound was tested for binding affinity to Serotonin transporter sites in homogenates prepared from rat cortical membranes using [3H]paroxetine as radioligand

Sodium-dependent serotonin transporter, sequence (P31652 whole entry): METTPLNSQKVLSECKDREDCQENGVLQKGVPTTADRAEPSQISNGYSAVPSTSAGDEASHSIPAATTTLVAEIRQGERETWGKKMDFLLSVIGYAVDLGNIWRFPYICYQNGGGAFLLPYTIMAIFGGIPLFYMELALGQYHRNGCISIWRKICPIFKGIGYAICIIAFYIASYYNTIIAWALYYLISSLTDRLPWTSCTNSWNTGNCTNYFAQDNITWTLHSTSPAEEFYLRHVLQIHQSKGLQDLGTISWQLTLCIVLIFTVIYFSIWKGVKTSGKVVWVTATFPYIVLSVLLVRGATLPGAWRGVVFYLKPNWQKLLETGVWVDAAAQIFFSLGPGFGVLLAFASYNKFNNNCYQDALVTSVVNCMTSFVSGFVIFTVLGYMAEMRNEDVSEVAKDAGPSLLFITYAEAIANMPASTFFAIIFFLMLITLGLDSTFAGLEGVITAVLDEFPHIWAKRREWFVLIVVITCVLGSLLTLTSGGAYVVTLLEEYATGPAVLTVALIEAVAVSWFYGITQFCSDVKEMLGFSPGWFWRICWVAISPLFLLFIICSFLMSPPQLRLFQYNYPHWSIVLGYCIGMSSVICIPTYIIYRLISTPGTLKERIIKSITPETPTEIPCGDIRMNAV

Structure (SMILES) | IC50 [µM]
COC(=O)[C@H]1[C@@H](c2ccc(F)cc2)C[C@H]2CC[C@H]1N2C | 0.479
COC(=O)[C@@H]1C2CC[C@H](C[C@@H]1c1ccc(I)cc1)N2C | 0.00378
